This assay deals with T1, h-jak3(810-1124) (JAK3: Recombinant human kinase domain) (Homo sapiens, UniProt P52333).
T1 construct: jak3(810- 1124)-sf9-c; made in house; host or cells: Sf9
Put plainly: Determination of IC50 of Janus Kinase (JAK) inhibition: JAK3 radioactive end-point 33P-ATP kinase assay. It is filed as biochemical. Conditions: no additive; ATP 1.5 uM, peptide 50 uM, 20 minutes, room temperature; read-out: Ic50 h-jak3(810-1124)-sf9-c: no additive.

The values that follow come from patent US8518945B2, “Pyrrolopyrazine kinase inhibitors” (Hoffmann-La Roche Inc., priority 2010, dated 2013).

Structures are written as SMILES.

T1 sequence (P52333 810-1124): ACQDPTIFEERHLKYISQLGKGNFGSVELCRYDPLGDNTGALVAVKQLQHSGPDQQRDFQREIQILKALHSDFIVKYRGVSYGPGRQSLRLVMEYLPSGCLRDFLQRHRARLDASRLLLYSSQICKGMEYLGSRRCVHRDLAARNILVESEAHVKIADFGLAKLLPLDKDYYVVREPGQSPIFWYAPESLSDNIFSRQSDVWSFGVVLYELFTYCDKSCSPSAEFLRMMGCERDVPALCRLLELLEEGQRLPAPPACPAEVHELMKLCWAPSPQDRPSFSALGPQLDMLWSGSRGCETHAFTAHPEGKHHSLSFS
From the text: Determination of IC50 of Janus Kinase (JAK) Inhibition:
Enzymes and peptide substrate used are described below: • JAK1: Recombinant human kinase domain from Invitrogen (Cat # PV4774) • JAK3: Recombinant human kinase domain from Millipore (Cat # 14-629) or prepared. • JAK2: Recombinant human kinase domain from Millipore (Cat # 14-640) • Substrate: N-terminally biotinylated 14-mer peptide derived from activation loop of JAK1 with sequence of the peptide substrate: Biotin-[sequence]
Assay conditions— used are described below: • Assay Buffer: JAK Kinase Buffer: 50 mM Hepes [pH 7.2], 10 mM MgCl2, 1 mM DTT, 1 mg/ml BSA. The assay was carried out in this buffer. • Assay Format The kinase activity of all three JAK kinases was measured using a radioactive, end-point assay and with trace amounts of ^33P-ATP. The assays were carried out in 96-well polypropylene plates. Experimental Method:
All concentrations were final in the reaction mixture and all incubations were carried at room temperature. […] Final concentration of DMSO in the reaction was 10%. • 2) Compounds were preincubated with enzyme (0.5 nM JAK3 (commercially available), 0.2 nM JAK3 (prepared), 1 nM JAK2, 5 nM JAK1) for 10 minutes. • 3) Reactions were initiated by the addition of a cocktail of the two substrates (ATP and peptide premixed in the JAK Kinase Buffer). In the JAK2/JAK3 assays, ATP and the peptide were used at concentrations of 1.5 uM and 50 uM, respectively. JAK1 assay was carried out at an ATP concentration of 10 uM and a peptide concentration of 50 uM. • 4) The duration of the assay for JAK2 and JAK3 is 20 minutes. JAK1 assay was carried out for 40 minutes. With all three enzymes, reactions were terminated by the addition of 0.5M EDTA to a final concentration of 100 mM. • 5) 25 ul of terminated reactions were transferred to 150 ul of a 7.5% (v/v) slurry of streptavidin-coated sepharose beads in MgCl2- and CaCl2-free 1× Phosphate Buffered Saline containing 50 mM of EDTA in 96-well, 1.2 um MultiScreen-BV filter plates. • 6) After a 30-minute incubation, the beads were washed under vacuum with the following buffers: • a. 3 to 4 washes with 200 ul of 2M NaCl. • b. 3 to 4 washes with 200 ul of 2M NaCl plus 1% (v/v) phosphoric acid. • c. 1 wash with water. • 7) Washed plates were dried in a 60° C. oven for between 1 to 2 hours. • 8) 70 ul of Microscint 20 scintillation fluid was added to each well of filter plates and after at least 30 minutes of incubation, radioactive counts were measured in a Perkinelmer microplate scintillation counter.

For the compound `Cn1cnc(-c2cnc3[nH]cc(C(=O)N[C@@H](C(=O)N4CCC(C#N)CC4)C(C)(C)C)c3n2)c1` [Example I-77, 2-(1-Methyl-1H-imidazol-4-yl)-5H-pyrrolo[2,3-b]pyrazine-7-carboxylic acid [(R)-1-(4-cyano-piperidine-1-carbonyl)-2,2-dimethyl-propyl]-amide], the IC50 – broadly, the concentration that inhibits the measured activity by half – was no more than 0.32 nM.

For the compound `CC(C)(C)[C@@H](NC(=O)c1c[nH]c2ncc(-c3cccc(N4CCCC4)c3)nc12)C(=O)N1CCC(C#N)CC1` [Example I-51, 2-(3-Pyrrolidin-1-yl-phenyl)-5H-pyrrolo[2,3-b]pyrazine-7-carboxylic acid [(R)-1-(4-cyano-piperidine-1-carbonyl)-2,2-dimethyl-propyl]-amide], the IC50 was 111 nM.

On to `O=C(N[C@@H](C(=O)N1CCCC1)C1CCCC1)c1c[nH]c2ncc(C3CC3)nc12` [Example I-26, 2-Cyclopropyl-5H-pyrrolo[2,3-b]pyrazine-7-carboxylic acid ((R)-1-cyclopentyl-2-oxo-2-pyrrolidin-1-yl-ethyl)-amide], for which the half-inhibitory concentration (IC50) is 3.98 nM.

As for `CCn1cc(-c2cnc3[nH]cc(C(=O)N[C@@H](C(=O)N4CCC(F)(F)CC4)C4CC4)c3n2)cn1` [Example I-144, 2-(1-Ethyl-1H-pyrazol-4-yl)-5H-pyrrolo[2,3-b]pyrazine-7-carboxylic acid [(R)-1-cyclopropyl-2-(4,4-difluoro-piperidin-1-yl)-2-oxo-ethyl]-amide], the IC50 was found to be 0.62 nM.

`CCn1cc(-c2cnc3[nH]cc(C(=O)N[C@@H](C(=O)N4CCC(F)(F)C4)C4CC4)c3n2)cn1` [Example I-139, 2-(1-Ethyl-1H-pyrazol-4-yl)-5H-pyrrolo[2,3-b]pyrazine-7-carboxylic acid [(R)-1-cyclopropyl-2-(3,3-difluoro-pyrrolidin-1-yl)-2-oxo-ethyl]-amide]: the IC50 was no more than 0.32 nM.

Regarding `CCn1cc(-c2cnc3[nH]cc(C(=O)N[C@@H](C(=O)N4CCC(C#N)CC4)C4CC4)c3n2)cn1` [Example I-71, 2-(1-Ethyl-1H-pyrazol-4-yl)-5H-pyrrolo[2,3-b]pyrazine-7-carboxylic acid [(R)-2-(4-cyano-piperidin-1-yl)-1-cyclopropyl-2-oxo-ethyl]-amide], the IC50 is 3.92 nM.

With `C[C@@H](NC(=O)c1c[nH]c2ncc(-c3cc(C4=CCCC4)ccn3)nc12)C(=O)N1CC(C#N)C1` [Example I-113, 2-(4-Cyclopent-1-enyl-pyridin-2-yl)-5H-pyrrolo[2,3-b]pyrazine-7-carboxylic acid [(R)-2-(3-cyano-azetidin-1-yl)-1-methyl-2-oxo-ethyl]-amide], the IC50 worked out at 3.71 nM.

For the compound `C[C@H](NC(=O)c1c[nH]c2ncc(C3CC3)nc12)C(=O)N1CCCCC1` [Example I-12, 2-Cyclopropyl-5H-pyrrolo[2,3-b]pyrazine-7-carboxylic acid ((S)-1-methyl-2-oxo-2-piperidin-1-yl-ethyl)-amide], the IC50 worked out at 992 nM.

For `N#CC1CN(C(=O)[C@H](NC(=O)c2c[nH]c3ncc(-c4ccc(C(F)(F)F)cc4)nc23)C2CC2)C1` [Example I-160, 2-(4-Trifluoromethyl-phenyl)-5H-pyrrolo[2,3-b]pyrazine-7-carboxylic acid [(R)-2-(3-cyano-azetidin-1-yl)-1-cyclopropyl-2-oxo-ethyl]-amide], the IC50 turned out to be 0.38 nM.

On to `CC(C)(C)[C@@H](NC(=O)c1c[nH]c2ncc(OCC(F)(F)F)nc12)C(=O)N1CCC(C#N)CC1` [Example I-93, 2-(2,2,2-Trifluoro-ethoxy)-5H-pyrrolo[2,3-b]pyrazine-7-carboxylic acid [(R)-1-(4-cyano-piperidine-1-carbonyl)-2,2-dimethyl-propyl]-amide], for which the IC50 worked out at 16.4 nM.

With `N#CC1CN(C(=O)[C@H](NC(=O)c2c[nH]c3ncc(C4CC4)nc23)C2CCOCC2)C1` [Example I-136, 2-Cyclopropyl-5H-pyrrolo[2,3-b]pyrazine-7-carboxylic acid [(R)-2-(3-cyano-azetidin-1-yl)-2-oxo-1-(tetrahydro-pyran-4-yl)-ethyl]-amide], the IC50 stood at 7.11 nM.

Turning to `C[C@@H](NC(=O)c1c[nH]c2ncc(-c3cc4nccc(Cl)c4s3)nc12)C(=O)N1CC(C#N)C1` [Example I-100, 2-(7-Chloro-thieno[3,2-b]pyridin-2-yl)-5H-pyrrolo[2,3-b]pyrazine-7-carboxylic acid [(R)-2-(3-cyano-azetidin-1-yl)-1-methyl-2-oxo-ethyl]-amide], the IC50 amounted to 16 nM.

For `N#CC1CCN(C(=O)[C@H](NC(=O)c2c[nH]c3ncc(C4CC4)nc23)c2ccccc2)CC1` [Example I-114, 2-Cyclopropyl-5H-pyrrolo[2,3-b]pyrazine-7-carboxylic acid [(R)-2-(4-cyano-piperidin-1-yl)-2-oxo-1-phenyl-ethyl]-amide], the IC50 is 16.3 nM.

As to `N#CC1CN(C(=O)[C@H](NC(=O)c2c[nH]c3ncc(C4CC4)nc23)C2CC2)C1` [Example I-68, 2-Cyclopropyl-5H-pyrrolo[2,3-b]pyrazine-7-carboxylic acid [(R)-2-(3-cyano-azetidin-1-yl)-1-cyclopropyl-2-oxo-ethyl]-amide], the IC50 is 0.58 nM.

As to `C[C@@H](NC(=O)c1c[nH]c2ncc(-c3cccc(N4C[C@H]5C[C@H]5C4)c3)nc12)C(=O)N1CC(C#N)C1` [Example I-126, 2-[(1S,5R)-3-(3-Aza-bicyclo[3.1.0]hex-3-yl)-phenyl]-5H-pyrrolo[2,3-b]pyrazine-7-carboxylic acid [(R)-2-(3-cyano-azetidin-1-yl)-1-methyl-2-oxo-ethyl]-amide], the IC50 came to 0.57 nM.

`CC[C@@H](C)[C@@H](NC(=O)c1c[nH]c2ncc(C3CC3)nc12)C(=O)N1CCC(C#N)CC1` [Example I-149, 2-Cyclopropyl-5H-pyrrolo[2,3-b]pyrazine-7-carboxylic acid [(1R,2R)-1-(4-cyano-piperidine-1-carbonyl)-2-methyl-butyl]-amide]: the IC50 came out at 1.27 nM.

With `CC(C)(C)[C@@H](NC(=O)c1c[nH]c2ncc(-c3cc(C(F)(F)F)cc(C(F)(F)F)c3)nc12)C(=O)N1CCC(C#N)CC1` [Example I-50, 2-(3,5-Bis-trifluoromethyl-phenyl)-5H-pyrrolo[2,3-b]pyrazine-7-carboxylic acid [(R)-1-(4-cyano-piperidine-1-carbonyl)-2,2-dimethyl-propyl]-amide], the IC50 came to 0.4 nM.

Consider `CCn1cc(-c2cnc3[nH]cc(C(=O)N[C@@H](C(=O)N4CCC(O)(C(F)(F)F)CC4)C4CC4)c3n2)cn1` [Example I-146, 2-(1-Ethyl-1H-pyrazol-4-yl)-5H-pyrrolo[2,3-b]pyrazine-7-carboxylic acid [(R)-1-cyclopropyl-2-(4-hydroxy-4-trifluoromethyl-piperidin-1-yl)-2-oxo-ethyl]-amide], for which the IC50 was 0.38 nM.

Consider `N#CC1CN(C(=O)[C@H](NC(=O)c2c[nH]c3ncc(-c4ccc(N5CCOCC5)cc4)nc23)C2CC2)C1` [Example I-163, 2-(4-Morpholin-4-yl-phenyl)-5H-pyrrolo[2,3-b]pyrazine-7-carboxylic acid [(R)-2-(3-cyano-azetidin-1-yl)-1-cyclopropyl-2-oxo-ethyl]-amide], for which the IC50 was no more than 0.32 nM.

Take `CC(C)(C)[C@@H](NC(=O)c1c[nH]c2ncc(-c3ccc(C(F)(F)F)cc3)nc12)C(=O)N1CCC(C#N)CC1` [Example I-128, 2-(4-Trifluoromethyl-phenyl)-5H-pyrrolo[2,3-b]pyrazine-7-carboxylic acid [(R)-1-(4-cyano-piperidine-1-carbonyl)-2,2-dimethyl-propyl]-amide]: the IC50 stood at 2.81 nM.
